Like-named read-outs stand apart in the source and are kept apart here. Some results are limits rather than exact numbers.

The term EC50 denotes the concentration needed to bring the measured effect to its halfway point. A lower EC50 goes with greater potency.

The test relates to C. parvum strain UGA1. Kind of test: C. parvum growth inhibition assay (Nluc luminescence in HCT-8 cells). Conditions: Cryptosporidium parvum; for inhibition at 1 µM / inhibition at 10 µM: HCT-8; for inhibition at 1 µM: read-out: % inh @ 1 uM C. parvum; for inhibition at 10 µM: read-out: % inh @ 10 uM C. parvum; for EC50: HCT-8, 48 h, C. parvum growth inhibition in HCT-8 cells, 48 hours, 6 concentrations 10-0.04 μM. It counts as cell-based, Cryptosporidium parvum.

Setting [1] is: single point inhibition at 1 uM.
Setting [2] is: single point inhibition at 10 uM.
Where [3] appears, read: single point inhibition @ 10 uM.

Take `Cn1cc(C(=O)Nc2cc3[nH]c(-c4ccnc(C(F)(F)F)n4)cc3cn2)cn1` [Example 287, 1-methyl-N-(2-(2-(trifluoromethyl)pyrimidin-4-yl)-1H-pyrrolo[3,2-c]pyridin-6-yl)-1H-pyrazole-4-carboxamide]: the inhibition at 1 µM under setting [1] lay in the range of 0 to 33%. Moreover, the inhibition at 10 µM under setting [2] was in the range of 0 to 33%.

`O=C(Nc1cc2[nH]c(-c3ccnc(OCC(F)F)n3)cc2cn1)c1cnn(CC2CCCO2)c1` (stereo in doubt) [Example 234, (S)-N-(2-(2-(2,2-difluoroethoxy)pyrimidin-4-yl)-1H-pyrrolo[3,2-c]pyridin-6-yl)-1-((tetrahydrofuran-2-yl)methyl)-1H-pyrazole-4-carboxamdie]: the inhibition at 1 µM under setting [1] was in the range of 33 to 66%. In addition, the inhibition at 10 µM under setting [2] lay in the range of 33 to 66%.

`Cc1ccc(-c2cc3cnc(NC(=O)C4CC4)cc3n2C)nc1` [Example 347, N-(1-methyl-2-(5-methylpyridin-2-yl)-1H-pyrrolo[3,2-c]pyridin-6-yl)cyclopropanecarboxamide] had an EC50 greater than 1 µM.

In the case of `CNC(=O)c1ccc(Nc2cc3[nH]c(-c4ccnc(C)c4)cc3cn2)cc1` [Example 190, N-methyl-4-(2-(2-methylpyridin-4-yl)-1H-pyrrolo[3,2-c]pyridin-6-ylamino)benzamide], the inhibition at 1 µM (single point inhibition @ 1 uM) lay in the range of 0 to 33%. Also, the inhibition at 10 µM under setting [3] was 67 to 100%.

For `CC(C)n1cc(C(=O)Nc2cc3c(cn2)cc(-c2ccnc(NC4CC4)n2)n3C)cn1` [Example 132, N-(2-(2-(cyclopropylamino)pyrimidin-4-yl)-1-methyl-1H-pyrrolo[3,2-c]pyridin-6-yl)-1-isopropyl-1H-pyrazole-4-carboxamide], the inhibition at 1 µM (single point inhibition @ 1 uM) is 0 to 33%. In addition, under setting [3], the inhibition at 10 µM lay in the range of 67 to 100%.

For the compound `O=C(Nc1cc2[nH]c(-c3nc(C(F)(F)F)cs3)cc2cn1)C1CC1` [Example 104, N-(2-(4-(trifluoromethyl)thiazol-2-yl)-1H-pyrrolo[3,2-c]pyridin-6-yl)cyclopropanecarboxamide], the EC50 is greater than 1 µM.

`O=C(Nc1cc2[nH]c(C3CCOCC3)cc2cn1)C1CC1` [Example 94, N-(2-(tetrahydro-2H-pyran-4-yl)-1H-pyrrolo[3,2-c]pyridin-6-yl)cyclopropanecarboxamide] returned an EC50 greater than 1 µM. Moreover, the inhibition at 1 µM (single point inhibition @ 1 uM) was in the range of 0 to 33%. Besides, the inhibition at 10 µM under setting [3] lay within 0 to 33%.

On to `Cn1cc(C(=O)Nc2cc3[nH]c(CCCO)cc3cn2)cn1` [Example 89, N-(2-(3-hydroxypropyl)-1H-pyrrolo[3,2-c]pyridin-6-yl)-1-methyl-1H-pyrazole-4-carboxamide], for which the concentration giving a half-maximal response (EC50) was greater than 1 µM. The inhibition at 1 µM (single point inhibition @ 1 uM) is 0 to 33%. The inhibition at 10 µM under setting [3] lay in the range of 0 to 33%.

`Cc1cc(-c2cc3cnc(N[C@H]4CCCOC4)cc3[nH]2)ccn1` [Example 22, (S)-2-(2-Methylpyridin-4-yl)-N-(tetrahydro-2H-pyran-3-yl)-1H-pyrrolo[3,2-c]pyridin-6-amine] had a concentration giving a half-maximal response (EC50) greater than 1 µM. In addition, the inhibition at 1 µM (single point inhibition @ 1 uM) fell in the range of 33 to 66%. The inhibition at 10 µM under setting [3] fell in the range of 67 to 100%.

As for `Cc1cc2cnc(NC(=O)C3CC3)cc2[nH]1` [Example 327, N-(2-methyl-1H-pyrrolo[3,2-c]pyridin-6-yl)cyclopropanecarboxamide], the inhibition at 1 µM under setting [1] fell in the range of 0 to 33%. Moreover, under setting [2], the inhibition at 10 µM lay in the range of 0 to 33%.

Consider `Cc1cc(-c2cc3cnc(NC(=O)C4CCCO4)cc3[nH]2)ccn1` (stereo in doubt) [Example 182, (S)-N-(2-(2-methylpyridin-4-yl)-1H-pyrrolo[3,2-c]pyridin-6-yl)tetrahydrofuran-2-carboxamide], for which, for the setting “single point inhibition @ 1 uM”, the inhibition at 1 µM was in the range of 0 to 33%. The inhibition at 10 µM under setting [3] is 67 to 100%.

`Cc1cc(-c2cc3cnc(NC(=O)C(C)O)cc3[nH]2)ccn1` (stereo in doubt) [Example 263, (R)-2-hydroxy-N-(2-(2-methylpyridin-4-yl)-1H-pyrrolo[3,2-c]pyridin-6-yl)propanamide]: under setting [1], the inhibition at 1 µM was in the range of 0 to 33%. In addition, the inhibition at 10 µM under setting [2] was in the range of 0 to 33%.

As for `CCn1cc(C(=O)Nc2cc3[nH]c(-c4ccnc(OCC(F)(F)F)n4)cc3cn2)c(C)n1` [Example 242, 1-ethyl-3-methyl-N-(2-(2-(2,2,2-trifluoroethoxy)pyrimidin-4-yl)-1H-pyrrolo[3,2-c]pyridin-6-yl)-1H-pyrazole-4-carboxamide], the inhibition at 1 µM under setting [1] fell in the range of 0 to 33%. Under setting [2], the inhibition at 10 µM fell in the range of 0 to 33%.

On to `O=C(Nc1cc2[nH]c(-c3ccnc(C(F)(F)F)n3)cc2cn1)C1CC(O)C1` (stereo not drawn) [Example 247, (1s,3s)-3-hydroxy-N-(2-(2-(trifluoromethyl)pyrimidin-4-yl)-1H-pyrrolo[3,2-c]pyridin-6-yl)cyclobutanecarboxamide], for which the inhibition at 1 µM under setting [1] was in the range of 33 to 66%. The inhibition at 10 µM under setting [2] was 0 to 33%.

Turning to `CCOc1nccc(-c2cc3cnc(NC(=O)c4cnn(C)c4)cc3n2CC(C)C)n1` [Example 316, N-(2-(2-ethoxypyrimidin-4-yl)-1-isobutyl-1H-pyrrolo[3,2-c]pyridin-6-yl)-1-methyl-1H-pyrazole-4-carboxamide], the inhibition at 1 µM under setting [1] lay in the range of 0 to 33%. For the same compound, the inhibition at 10 µM under setting [2] is 0 to 33%.

For the compound `Cc1cc(-c2cc3cnc(NC(=O)c4cnn(C5CCOC5)c4)cc3[nH]2)ccn1` (stereo not drawn) [Example 236, N-(2-(2-methylpyridin-4-yl)-1H-pyrrolo[3,2-c]pyridin-6-yl)-1-(tetrahydrofuran-3-yl)-1H-pyrazole-4-carboxamide], the inhibition at 1 µM under setting [1] was 33 to 66%. For the same compound, the inhibition at 10 µM under setting [2] lay in the range of 33 to 66%.

As for `COc1cccc(Nc2cc3[nH]c(-c4cncn4C)cc3cn2)c1` [Example 204, N-(3-methoxyphenyl)-2-(1-methyl-1H-imidazol-5-yl)-1H-pyrrolo[3,2-c]pyridin-6-amine], the inhibition at 1 µM under setting [1] was in the range of 33 to 66%. Also, the inhibition at 10 µM under setting [2] is 67 to 100%.

Compound `Cn1cnc(-c2cc3cnc(NC(=O)C4CC4)cc3[nH]2)n1` [Example 65, N-(2-(1-methyl-1H-1,2,4-triazol-3-yl)-1H-pyrrolo[3,2-c]pyridin-6-yl)cyclopropanecarboxamide] returned an EC50 greater than 1 µM.

As for `Cc1cc(-c2cc3cnc(NC(=O)C4CC4)cc3n2CCN(C)C)ncn1` [Example 124, N-(1-(2-(dimethylamino)ethyl)-2-(6-methylpyrimidin-4-yl)-1H-pyrrolo[3,2-c]pyridin-6-yl)cyclopropanecarboxamide], the concentration giving a half-maximal response (EC50) is greater than 1 µM.

For `Cn1cc(C(=O)Nc2cc3[nH]c(-c4cnc(C(F)(F)F)cn4)cc3cn2)cn1` [Example 304, 1-methyl-N-(2-(5-(trifluoromethyl)pyrazin-2-yl)-1H-pyrrolo[3,2-c]pyridin-6-yl)-1H-pyrazole-4-carboxamide], the inhibition at 1 µM under setting [1] is 33 to 66%. Besides, under setting [2], the inhibition at 10 µM was in the range of 0 to 33%.

On to `COc1nccc(-c2cc3cnc(NC(=O)c4ccc(N5CCOCC5)cc4)cc3[nH]2)n1` [Example 320, N-(2-(2-methoxypyrimidin-4-yl)-1H-pyrrolo[3,2-c]pyridin-6-yl)-4-morpholinobenzamide], for which the inhibition at 1 µM under setting [1] fell in the range of 0 to 33%. Also, the inhibition at 10 µM under setting [2] lay within 0 to 33%.

Turning to `Cc1cc(-c2cc3cnc(N(C)C(=O)C4CC4)cc3[nH]2)ccn1` [Example 86, N-methyl-N-(2-(2-methylpyridin-4-yl)-1H-pyrrolo[3,2-c]pyridin-6-yl)cyclopropanecarboxamide], the 50% effective concentration (EC50) is greater than 1 µM. The inhibition at 1 µM (single point inhibition @ 1 uM) lay within 33 to 66%. Besides, the inhibition at 10 µM under setting [3] is 0 to 33%.

As to `Cc1cc(-c2cc3cnc(NC(=O)c4cc(C(F)(F)F)n(C)n4)cc3[nH]2)ccn1` [Example 294, 1-methyl-N-(2-(2-methylpyridin-4-yl)-1H-pyrrolo[3,2-c]pyridin-6-yl)-5-(trifluoromethyl)-1H-pyrazole-3-carboxamide], the inhibition at 1 µM under setting [1] fell in the range of 0 to 33%. Under setting [2], the inhibition at 10 µM was 0 to 33%.

In turn, `CCOc1nccc(-c2cc3cnc(NC4CCOCC4)cc3[nH]2)n1` [Example 377, 2-(2-ethoxypyrimidin-4-yl)-N-(tetrahydro-2H-pyran-4-yl)-1H-pyrrolo[3,2-c]pyridin-6-amine] displayed an EC50 greater than 1 µM.

With `O=C(CC1CCOCC1)Nc1cc2[nH]c(-c3ccncc3)cc2cn1` [Example 143, N-(2-(pyridin-4-yl)-1H-pyrrolo[3,2-c]pyridin-6-yl)-2-(tetrahydro-2H-pyran-4-yl)acetamide], for the setting “single point inhibition @ 1 uM”, the inhibition at 1 µM is 0 to 33%. In addition, the inhibition at 10 µM under setting [3] lay in the range of 67 to 100%.

Consider `COc1nccc(-c2cc3cnc(NC(=O)c4cc(C)n(C)n4)cc3[nH]2)n1` [Example 292, N-(2-(2-methoxypyrimidin-4-yl)-1H-pyrrolo[3,2-c]pyridin-6-yl)-1,5-dimethyl-1H-pyrazole-3-carboxamide], for which the inhibition at 1 µM under setting [1] is 0 to 33%. In addition, under setting [2], the inhibition at 10 µM is 0 to 33%.

`Cc1cc(-c2cc3cnc(NC4CCOCC4)cc3[nH]2)ncn1` [Example 38]: the EC50 was greater than 1 µM.

For `CN(C)C(=O)Nc1cc2[nH]c(C(F)(F)F)cc2cn1` [Example 108, 1,1-dimethyl-3-(2-(trifluoromethyl)-1H-pyrrolo[3,2-c]pyridin-6-yl)urea], the 50% effective concentration (EC50) was greater than 1 µM.

In turn, `Cn1cc(C(=O)Nc2cc3[nH]c(-c4ccnc(O[C@H]5CC[C@H](O)CC5)n4)cc3cn2)cn1` [Example 85, N-(2-(2-((1r,4r)-4-hydroxycyclohexyloxy)pyrimidin-4-yl)-1H-pyrrolo[3,2-c]pyridin-6-yl)-1-methyl-1H-pyrazole-4-carboxamide] showed a concentration giving a half-maximal response (EC50) greater than 1 µM. Besides, the inhibition at 1 µM (single point inhibition @ 1 uM) was in the range of 67 to 100%. Under setting [3], the inhibition at 10 µM was 0 to 33%.

Take `COCCn1cc(Nc2cc3[nH]c(-c4ccncc4)cc3cn2)cn1` [Example 192, N-(1-(2-methoxyethyl)-1H-pyrazol-4-yl)-2-(pyridin-4-yl)-1H-pyrrolo[3,2-c]pyridin-6-amine]: where the note is “single point inhibition @ 1 uM”, the inhibition at 1 µM lay within 33 to 66%. Further, under setting [3], the inhibition at 10 µM is 67 to 100%.

As for `Cc1cc(-c2cc3cnc(NC(=O)c4cnn(C)c4)cc3[nH]2)ccn1` [Example 224, 1-methyl-N-(2-(2-methylpyridin-4-yl)-1H-pyrrolo[3,2-c]pyridin-6-yl)-1H-pyrazole-4-carboxamide], under setting [1], the inhibition at 1 µM was in the range of 0 to 33%. Moreover, the inhibition at 10 µM under setting [2] fell in the range of 33 to 66%.

Source of the values: patent US20240124444A1 (Celgene Corporation, priority 2020, published 2024).
